In patent US20220002400A1 (priority 2019, published 2022):
Values joined by “and” are separate entries in the source; they are usually repeats but may differ in a detail not shown here. Identical values can stand only once.

Legend:
Type in all cases: cell-based
A549 cells = details: 100 nM for 1 hour at 37° C.
Influenza A PR8 virus [1] = test system: Influenza A PR8 virus
Influenza A PR8 virus [2] = details: 10 nM

Row | Compound | lysotracker staining (A549 cells) | protection against IAV infection (percentage of HA+ cells) (Influenza A PR8 virus [1]) | effect of baloxavir marboxil treatment combined with CRISPR deletion on Influenza A virus infection (Influenza A PR8 virus [2]; 1 nM, 5 nM) | reduction of the rate of Influenza A virus infection compared to untreated cells, according to Hemagglutinin staining (Influenza A PR8 virus [2])
1 | CO/C1=C\C(C)=C\[C@@H](C)[C@@H](O)[C@@H](C)C/C(C)=C/C=C/[C@H](OC)[C@@H]([C@@H](C)[C@@H](O)[C@H](C)[C@@]2(O)C[C@@H](O)[C@H](C)[C@@H](C(C)C)O2)OC1=O [BafA, Bafilomycin A] | a decrease in lysotracker staining was observed | further protected the KO cells against IAV infection | – | –
2 | COC(=O)OCOc1c2n(ccc1=O)N([C@@H]1c3ccccc3SCc3c1ccc(F)c3F)[C@@H]1COCCN1C2=O [baloxavir marboxil] | – | – | synergistic effect with baloxavir marboxil treatment but to a lesser extent compared to CMTR1 | 58% and 91%
